Reference: patent US7851474B2, “Dipiperazinyl ketones and related analogues” (Neurogen Corporation, priority 2005, dated 2010)

Target: T1, chimeric human H3 receptor (Homo sapiens, UniProt Q9Y5N1, E19D)
T1 construct: made in house; host or cells: Sf9 insect cells (baculovirus infection); P2 membrane preparation
Test: Chimeric human H3 receptor GTP binding assay (agonist-stimulated GTP-gamma35S binding, Example 7)
Type: biochemical
Conditions: Table II, "*" in Ki; assay of Example 7; read-out: Ki
Outline: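 IC50 values come from non-linear regression of dose-response curves of filter-bound GTP-gamma^35S, counted by scintillation. Membranes were from infected Sf9 cells carrying receptor plus G-protein subunits, 35 μg/tube, with 10 μM GDP present.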

T1 sequence (Q9Y5N1 with tags, fused parts or gaps E19D): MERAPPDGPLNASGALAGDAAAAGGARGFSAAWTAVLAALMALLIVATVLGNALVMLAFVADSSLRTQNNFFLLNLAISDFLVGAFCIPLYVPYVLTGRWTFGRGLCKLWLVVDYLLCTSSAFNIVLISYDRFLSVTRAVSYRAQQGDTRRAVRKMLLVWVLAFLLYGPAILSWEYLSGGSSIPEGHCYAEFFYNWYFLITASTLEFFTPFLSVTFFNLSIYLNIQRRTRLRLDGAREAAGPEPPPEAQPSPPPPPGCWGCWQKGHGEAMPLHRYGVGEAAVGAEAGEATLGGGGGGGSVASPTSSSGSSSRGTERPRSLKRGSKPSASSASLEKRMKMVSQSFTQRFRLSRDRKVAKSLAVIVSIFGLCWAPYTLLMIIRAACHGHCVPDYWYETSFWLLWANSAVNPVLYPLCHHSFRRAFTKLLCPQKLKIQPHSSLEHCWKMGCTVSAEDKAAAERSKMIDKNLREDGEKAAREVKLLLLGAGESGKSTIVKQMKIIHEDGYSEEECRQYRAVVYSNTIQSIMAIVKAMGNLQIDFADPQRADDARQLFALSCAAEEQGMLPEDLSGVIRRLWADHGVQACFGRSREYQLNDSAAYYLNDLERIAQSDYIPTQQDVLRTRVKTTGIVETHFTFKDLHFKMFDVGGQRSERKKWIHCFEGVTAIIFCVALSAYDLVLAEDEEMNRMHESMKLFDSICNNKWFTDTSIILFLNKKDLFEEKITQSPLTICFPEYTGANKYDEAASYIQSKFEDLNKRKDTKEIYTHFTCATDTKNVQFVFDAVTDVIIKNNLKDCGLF

Row | SMILES | Ki
1 | Cc1cc(C)cc(-c2ccc(N3CCN(CC(=O)N4CCN(C5CCC5)CC4)CC3)cc2)c1 [Compound 743, 1-cyclobutyl-4-{[4-(3′,5′-dimethylbiphenyl-4-yl)piperazin-1-yl]acetyl}piperazine] | < 1 µM
2 | COC[C@H]1CCCN1C(=O)c1cccc(N2CCN(CC(=O)N3CCN(C4CCC4)CC3)CC2)c1 [Compound 744, 1-cyclobutyl-4-{[4-(3-{[(2R)-2-(methoxymethyl)pyrrolidin-1-yl]car-bonyl}phenyl)piperazin-1-yl]acetyl}piperazine] | < 1 µM
3 | COC[C@@H]1CCCN1C(=O)c1cccc(N2CCN(CC(=O)N3CCN(C4CCC4)CC3)CC2)c1 [Compound 745, 1-cyclobutyl-4-{[4-(3-{[(2S)-2-(methoxymethyl)pyrrolidin-1-yl]car-bonyl}phenyl)piperazin-1-yl]acetyl}piperazine] | < 1 µM
4 | CCOc1cccc(-c2ccc(N3CCN(CC(=O)N4CCN(C5CCC5)CC4)CC3)cc2)c1 [Compound 746, 1-cyclobutyl-4-{[4-(3′-ethoxybiphenyl-4-yl)piperazin-1-yl]acetyl}piperazine] | < 1 µM
5 | CCc1cccc(-c2ccc(N3CCN(CC(=O)N4CCN(C5CCC5)CC4)CC3)cc2)c1 [Compound 747, 1-cyclobutyl-4-{[4-(3′-ethylbiphenyl-4-yl)piperazin-1-yl]acetyl}piperazine] | < 1 µM
6 | COc1ccc(-c2cccc(N3CCN(CC(=O)N4CCN(C5CCC5)CC4)CC3)c2)cc1F [Compound 749, 1-cyclobutyl-4-{[4-(3′-fluoro-4′-methoxybiphenyl-3-yl)piperazin-1-yl]acetyl}piperazine] | < 1 µM
7 | COc1ccc(-c2ccc(N3CCN(CC(=O)N4CCN(C5CCC5)CC4)CC3)cc2)cc1F [Compound 750, 1-cyclobutyl-4-{[4-(3′-fluoro-4′-methoxybiphenyl-4-yl)piperazin-1-yl]acetyl}piperazine] | < 1 µM
8 | Cc1ccc(-c2ccc(N3CCN(CC(=O)N4CCN(C5CCC5)CC4)CC3)cc2)cc1F [Compound 751, 1-cyclobutyl-4-{[4-(3′-fluoro-4′-methylbiphenyl-4-yl)piperazin-1-yl]acetyl}piperazine] | < 1 µM
9 | O=C(CN1CCN(c2ccc(-c3cccc(F)c3)cc2)CC1)N1CCN(C2CCC2)CC1 [Compound 753, 1-cyclobutyl-4-{[4-(3′-fluorobiphenyl-4-yl)piperazin-1-yl]acetyl}piperazine] | < 1 µM
10 | O=C(CN1CCN(c2cccc(F)c2)CC1)N1CCN(C2CCC2)CC1 [Compound 754, 1-cyclobutyl-4-{[4-(3-fluorophenyl)piperazin-1-yl]acetyl}piperazine] | < 1 µM
11 | CC(C)Oc1cccc(-c2ccc(N3CCN(CC(=O)N4CCN(C5CCC5)CC4)CC3)cc2)c1 [Compound 755, 1-cyclobutyl-4-{[4-(3′-isopropoxybiphenyl-4-yl)piperazin-1-yl]acetyl}piperazine] | < 1 µM
12 | CC(C)c1cccc(-c2ccc(N3CCN(CC(=O)N4CCN(C5CCC5)CC4)CC3)cc2)c1 [Compound 756, 1-cyclobutyl-4-{[4-(3′-isopropylbiphenyl-4-yl)piperazin-1-yl]acetyl}piperazine] | < 1 µM
13 | COc1cccc(-c2ccc(N3CCN(CC(=O)N4CCN(C5CCC5)CC4)CC3)cc2)c1 [Compound 758, 1-cyclobutyl-4-{[4-(3′-methoxybiphenyl-4-yl)piperazin-1-yl]acetyl}piperazine] | < 1 µM
14 | COc1cccc(N2CCN(CC(=O)N3CCN(C4CCC4)CC3)CC2)c1 [Compound 759, 1-cyclobutyl-4-{[4-(3-methoxyphenyl)piperazin-1-yl]acetyl}piperazine] | < 1 µM
15 | Cc1cccc(-c2ccc(N3CCN(CC(=O)N4CCN(C5CCC5)CC4)CC3)cc2)c1 [Compound 762, 1-cyclobutyl-4-{[4-(3′-methylbiphenyl-4-yl)piperazin-1-yl]acetyl}piperazine] | < 1 µM
16 | Cc1cccc(N2CCN(CC(=O)N3CCN(C4CCC4)CC3)CC2)c1 [Compound 763, 1-cyclobutyl-4-{[4-(3-methylphenyl)piperazin-1-yl]acetyl}piperazine] | < 1 µM
17 | COC[C@H]1CCCN1C(=O)c1ccc(N2CCN(CC(=O)N3CCN(C4CCC4)CC3)CC2)cc1 [Compound 767, 1-cyclobutyl-4-{[4-(4-{[(2R)-2-(methoxymethyl)pyrrolidin-1-yl]carbonyl}phenyl)piperazin-1-yl]acetyl}piperazine] | < 1 µM
18 | COC[C@@H]1CCCN1C(=O)c1ccc(N2CCN(CC(=O)N3CCN(C4CCC4)CC3)CC2)cc1 [Compound 768, 1-cyclobutyl-4-{[4-(4-{[(2S)-2-(methoxymethyl)pyrrolidin-1-yl]carbonyl}phenyl)piperazin-1-yl]acetyl}piperazine] | < 1 µM
19 | CCOc1ccc(-c2ccc(N3CCN(CC(=O)N4CCN(C5CCC5)CC4)CC3)cc2)cc1 [Compound 769, 1-cyclobutyl-4-{[4-(4′-ethoxybiphenyl-4-yl)piperazin-1-yl]acetyl}piperazine] | < 1 µM
20 | CCc1ccc(-c2ccc(N3CCN(CC(=O)N4CCN(C5CCC5)CC4)CC3)cc2)cc1 [Compound 770, 1-cyclobutyl-4-{[4-(4′-ethylbiphenyl-4-yl)piperazin-1-yl]acetyl}piperazine] | < 1 µM
21 | Cc1cc(-c2ccc(N3CCN(CC(=O)N4CCN(C5CCC5)CC4)CC3)cc2)ccc1F [Compound 771, 1-cyclobutyl-4-{[4-(4′-fluoro-3′-methylbiphenyl-4-yl)piperazin-1-yl]acetyl}piperazine] | < 1 µM

More lines, now with the values ahead:

Row | Ki | SMILES
22 | < 1 µM | Cc1ccc(-c2ccc(N3CCN(CC(=O)N4CCN(C5CCC5)CC4)CC3)cc2)c(F)c1 [Compound 704, 1-cyclobutyl-4-{[4-(2′-fluoro-4′-methylbiphenyl-4-yl)piperazin-1-yl]acetyl}piperazine]
23 | < 1 µM | Cc1ccc(F)c(-c2ccc(N3CCN(CC(=O)N4CCN(C5CCC5)CC4)CC3)cc2)c1 [Compound 705, 1-cyclobutyl-4-{[4-(2′-fluoro-5′-methylbiphenyl-4-yl)piperazin-1-yl]acetyl}piperazine]
24 | < 1 µM | O=C(CN1CCN(c2ccc(-c3ccccc3F)cc2)CC1)N1CCN(C2CCC2)CC1 [Compound 707, 1-cyclobutyl-4-{[4-(2′-fluorobiphenyl-4-yl)piperazin-1-yl]acetyl}piperazine]
25 | < 1 µM | O=C(CN1CCN(c2ccccc2F)CC1)N1CCN(C2CCC2)CC1 [Compound 708, 1-cyclobutyl-4-{[4-(2-fluorophenyl)piperazin-1-yl]acetyl}piperazine]
26 | < 1 µM | CC(C)c1ccccc1-c1ccc(N2CCN(CC(=O)N3CCN(C4CCC4)CC3)CC2)cc1 [Compound 709, 1-cyclobutyl-4-{[4-(2′-isopropylbiphenyl-4-yl)piperazin-1-yl]acetyl}piperazine]
27 | < 1 µM | COc1ccc(C)cc1-c1ccc(N2CCN(CC(=O)N3CCN(C4CCC4)CC3)CC2)cc1 [Compound 710, 1-cyclobutyl-4-{[4-(2′-methoxy-5′-methylbiphenyl-4-yl)piperazin-1-yl]acetyl}piperazine]
28 | < 1 µM | COc1ccccc1-c1ccc(N2CCN(CC(=O)N3CCN(C4CCC4)CC3)CC2)cc1 [Compound 712, 1-cyclobutyl-4-{[4-(2′-methoxybiphenyl-4-yl)piperazin-1-yl]acetyl}piperazine]
29 | < 1 µM | O=C(CN1CCN(c2ccc(-c3ccccc3Oc3ccccc3)cc2)CC1)N1CCN(C2CCC2)CC1 [Compound 719, 1-cyclobutyl-4-{[4-(2′-phenoxybiphenyl-4-yl)piperazin-1-yl]acetyl}piperazine]
30 | < 1 µM | CC(Oc1ccccc1)C(=O)N1CCN(CC(=O)N2CCN(C3CCC3)CC2)CC1 (stereo not drawn) [Compound 720, 1-cyclobutyl-4-{[4-(2-phenoxypropanoyl)piperazin-1-yl]acetyl}piperazine]
31 | < 1 µM | COc1cc(-c2ccc(N3CCN(CC(=O)N4CCN(C5CCC5)CC4)CC3)cc2)cc(OC)c1OC [Compound 725, 1-cyclobutyl-4-{[4-(3′,4′,5′-trimethoxybiphenyl-4-yl)piperazin-1-yl]acetyl}piperazine]
32 | < 1 µM | O=C(CN1CCN(c2ccc(-c3ccc(Cl)c(Cl)c3)cc2)CC1)N1CCN(C2CCC2)CC1 [Compound 727, 1-cyclobutyl-4-{[4-(3′,4′-dichlorobiphenyl-4-yl)piperazin-1-yl]acetyl}piperazine]
33 | < 1 µM | O=C(CN1CCN(c2ccc(-c3ccc(F)c(F)c3)cc2)CC1)N1CCN(C2CCC2)CC1 [Compound 730, 1-cyclobutyl-4-{[4-(3′,4′-difluorobiphenyl-4-yl)piperazin-1-yl]acetyl}piperazine]
34 | < 1 µM | COc1ccc(-c2ccc(N3CCN(CC(=O)N4CCN(C5CCC5)CC4)CC3)cc2)cc1OC [Compound 732, 1-cyclobutyl-4-{[4-(3′,4′-dimethoxybiphenyl-4-yl)piperazin-1-yl]acetyl}piperazine]
35 | < 1 µM | COc1ccc(N2CCN(CC(=O)N3CCN(C4CCC4)CC3)CC2)cc1OC [Compound 733, 1-cyclobutyl-4-{[4-(3,4-dimethoxyphenyl)piperazin-1-yl]acetyl}piperazine]
36 | < 1 µM | Cc1ccc(-c2ccc(N3CCN(CC(=O)N4CCN(C5CCC5)CC4)CC3)cc2)cc1C [Compound 735, 1-cyclobutyl-4-{[4-(3′,4′-dimethylbiphenyl-4-yl)piperazin-1-yl]acetyl}piperazine]
37 | < 1 µM | Cc1ccc(N2CCN(CC(=O)N3CCN(C4CCC4)CC3)CC2)cc1C [Compound 736, 1-cyclobutyl-4-{[4-(3,4-dimethylphenyl)piperazin-1-yl]acetyl}piperazine]
38 | < 1 µM | O=C(CN1CCN(c2ccc(-c3cc(Cl)cc(Cl)c3)cc2)CC1)N1CCN(C2CCC2)CC1 [Compound 739, 1-cyclobutyl-4-{[4-(3′,5′-dichlorobiphenyl-4-yl)piperazin-1-yl]acetyl}piperazine]
39 | < 1 µM | O=C(CN1CCN(c2ccc(-c3cc(F)cc(F)c3)cc2)CC1)N1CCN(C2CCC2)CC1 [Compound 740, 1-cyclobutyl-4-{[4-(3′,5′-difluorobiphenyl-4-yl)piperazin-1-yl]acetyl}piperazine]
